{"source": "paper PMC9721424", "about": "“Novel N-methylsulfonyl-indole derivatives: biological activity and COX-2/5-LOX inhibitory effect with improved gastro protective profile and reduced cardio vascular risks” (Journal of Enzyme Inhibition and Medicinal Chemistry, 2022)", "key": {"ovine COX-1": {"biological_target": "T1, ovine COX-1 (Ovis aries, UniProt P05979)", "T1 sequence (P05979 25-600)": "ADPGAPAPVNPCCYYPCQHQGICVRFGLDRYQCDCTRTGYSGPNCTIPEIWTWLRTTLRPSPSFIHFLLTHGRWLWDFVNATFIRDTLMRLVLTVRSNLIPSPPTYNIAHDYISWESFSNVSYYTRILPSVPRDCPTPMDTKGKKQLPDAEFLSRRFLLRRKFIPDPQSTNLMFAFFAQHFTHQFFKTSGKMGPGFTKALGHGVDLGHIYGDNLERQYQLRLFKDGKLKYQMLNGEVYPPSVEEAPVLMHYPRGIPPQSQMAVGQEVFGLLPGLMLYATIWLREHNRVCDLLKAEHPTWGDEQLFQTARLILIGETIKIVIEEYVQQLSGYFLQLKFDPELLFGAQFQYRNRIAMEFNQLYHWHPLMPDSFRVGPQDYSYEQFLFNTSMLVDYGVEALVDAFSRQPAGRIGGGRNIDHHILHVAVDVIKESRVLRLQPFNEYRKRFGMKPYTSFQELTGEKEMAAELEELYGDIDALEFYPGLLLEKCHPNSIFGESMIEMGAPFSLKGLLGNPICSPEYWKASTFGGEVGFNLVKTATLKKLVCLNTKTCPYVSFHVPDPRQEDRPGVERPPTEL", "test": "COX-1 inhibition, enzyme immune assay (EIA) kit", "description": "Colorimetric enzyme immunoassay (EIA) kits were done to screen for the isozyme-specific inhibition."}, "stomach": {"test_system": "stomach", "test": "Histopathological examination of stomach", "format": "in vivo, rats", "conditions": "rats, H&E stain", "procedure": "In brief, the stomachs of each animal group’s rat were fixed in 10% neutral buffered formalin for 48 h. The sections were then dehydrated, cleared, fixed in paraffin, sectioned ([…]), and stained with H&E stain."}, "COX-2": {"biological_target": "T2, COX-2 (Ovis aries, UniProt P79208)", "T2 sequence (P79208 17-603)": "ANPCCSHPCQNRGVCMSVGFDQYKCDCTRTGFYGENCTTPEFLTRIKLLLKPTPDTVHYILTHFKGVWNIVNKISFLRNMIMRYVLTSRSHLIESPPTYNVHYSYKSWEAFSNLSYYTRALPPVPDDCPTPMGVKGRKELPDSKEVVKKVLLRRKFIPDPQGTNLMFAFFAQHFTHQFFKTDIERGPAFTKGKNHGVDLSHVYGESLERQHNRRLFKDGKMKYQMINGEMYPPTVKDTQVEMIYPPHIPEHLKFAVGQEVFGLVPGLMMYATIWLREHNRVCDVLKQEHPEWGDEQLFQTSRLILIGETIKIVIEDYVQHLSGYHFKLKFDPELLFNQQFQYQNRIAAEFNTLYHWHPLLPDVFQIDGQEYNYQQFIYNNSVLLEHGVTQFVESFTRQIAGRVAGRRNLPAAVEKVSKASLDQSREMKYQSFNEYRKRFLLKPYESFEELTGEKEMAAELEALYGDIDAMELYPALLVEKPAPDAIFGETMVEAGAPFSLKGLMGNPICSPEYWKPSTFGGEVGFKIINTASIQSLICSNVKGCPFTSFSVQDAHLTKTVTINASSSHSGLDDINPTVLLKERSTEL", "test": "COX-2 inhibition, enzyme immune assay (EIA) kit", "format": "biochemical, ovine", "conditions": "for S.I (IC50 COX-1/IC50 COX-2): COX-2 selectivity index; for SI: lab report, COX1/COX2"}, "[1]": {"test_system": "Escherichia coli (E. coli) (ATCC 25922)", "test": "Disc diffusion antimicrobial screening, E. coli", "format": "cell-based", "conditions": "for antibacterial activity against E. coli: 100 µg/disc", "procedure": "All compounds were screened for their antimicrobial activity at the Microbiology and Immunology Department, Faculty of Pharmacy, Beni-Suef University. The antimicrobial activity screening was carried out using the disc diffusion method, as described earlier, with some adjustments.\nFor each indicator microbe, a solution of half McFarland turbidity was prepared in sterile saline, followed by surface streaking of the strains on Mueller-Hinton agar with a sterile cotton swab. Then, sterile filter paper discs (5 mm diameter) preloaded with 100 µg of each compound were applied to the surface of the pre-inoculated plates. Then, the plates were chilled at 4 °C for 100 min before being incubated overnight at the proper temperature for microbial growth. Finally, the diameter of the inhibition zones around each disc was measured to evaluate the antimicrobial activity of the compounds. Ciprofloxacin was used as a standard antibacterial agent at a concentration of 20 µg/disc. Furthermore, DMSO-loaded discs were used as a negative control."}, "5-LOX enzyme": {"biological_target": "T3, 5-LOX enzyme (Homo sapiens, UniProt P09917)", "T3 construct": "purchased Cayman Chemical K980-100", "T3 sequence (P09917 1-674)": "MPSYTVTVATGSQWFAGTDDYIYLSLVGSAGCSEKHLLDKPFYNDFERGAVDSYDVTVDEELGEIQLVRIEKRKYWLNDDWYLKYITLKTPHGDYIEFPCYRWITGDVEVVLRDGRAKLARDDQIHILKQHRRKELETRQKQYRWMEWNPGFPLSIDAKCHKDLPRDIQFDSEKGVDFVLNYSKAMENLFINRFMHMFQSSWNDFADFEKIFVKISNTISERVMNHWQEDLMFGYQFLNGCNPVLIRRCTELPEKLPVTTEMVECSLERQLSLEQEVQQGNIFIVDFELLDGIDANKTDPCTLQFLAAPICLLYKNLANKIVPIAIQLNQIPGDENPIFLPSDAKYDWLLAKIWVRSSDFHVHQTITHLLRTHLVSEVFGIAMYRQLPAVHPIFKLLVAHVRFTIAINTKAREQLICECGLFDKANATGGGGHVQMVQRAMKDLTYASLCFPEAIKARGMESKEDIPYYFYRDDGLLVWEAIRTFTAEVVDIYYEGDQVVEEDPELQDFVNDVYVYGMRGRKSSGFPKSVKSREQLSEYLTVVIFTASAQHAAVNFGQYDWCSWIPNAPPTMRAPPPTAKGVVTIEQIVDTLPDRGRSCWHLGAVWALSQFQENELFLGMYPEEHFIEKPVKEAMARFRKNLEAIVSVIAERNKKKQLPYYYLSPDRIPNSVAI", "test": "5-LOX inhibition, Human Lipoxygenase Inhibitor Screening Assay (EIA) kit", "format": "biochemical", "procedure": "The ability of the test compounds to inhibit the 5-LOX enzyme (IC50 value, μM) was detected using the Cayman Human Lipoxygenase Inhibitor Screening Assay (EIA) kit (catalog no. K980-100, Cayman Chemical). The IC50 values of test compounds were measured in µM according to the manufacturer’s instructions and reported method."}}, "note": "Several values for one entry are separate records, joined by “and”; a condition that tells them apart may be missing. Equal entries are not always repeated. Where two headings read alike, the source gives them in different places.", "data": [{"smiles": "COc1ccc(NC(=S)N/N=C/c2cn(S(C)(=O)=O)c3ccccc23)cc1", "note": "[Compound 4e, (E)-N-(4-Methoxyphenyl)-2{[1-(methylsulfonyl)-1H-indol 3yl]methylene}hydrazinecarbothioamide]", "values": [{"measurement": "IC50", "setting": "ovine COX-1; IC50 COX-1", "value": "24.7 ± 0.7", "unit": "µM"}, {"measurement": "COX1 %inh", "setting": "ovine COX-1; conc 0.1 (μM)", "value": 5.87, "unit": "%"}, {"measurement": "COX1 %inh", "setting": "ovine COX-1; conc 1 (μM)", "value": 14.4, "unit": "%"}, {"measurement": "COX1 %inh", "setting": "ovine COX-1; conc 10 (μM)", "value": 28.6, "unit": "%"}, {"measurement": "COX1 %inh", "setting": "ovine COX-1; conc 100 (μM)", "value": 73.5, "unit": "%"}, {"measurement": "stomach histopathology finding", "setting": "stomach", "value": "partial loss of mucous layer with mild superficial erosions"}, {"measurement": "S.I (IC50 COX-1/IC50 COX-2)", "setting": "COX-2", "value": 30.17}, {"measurement": "SI", "setting": "COX-2", "value": 30.17}, {"measurement": "melting point", "value": "214 to 216", "unit": "°C"}, {"measurement": "antibacterial activity against E. coli", "setting": "[1]", "value": "selective antibacterial activity"}, {"measurement": "IC50", "setting": "5-LOX enzyme", "value": "4.08 ± 0.22", "unit": "µM"}, {"measurement": "5-LOX %inh", "setting": "5-LOX enzyme; conc 0.1 (μM)", "value": 17.9, "unit": "%"}, {"measurement": "5-LOX %inh", "setting": "5-LOX enzyme; conc 1 (μM)", "value": 30.9, "unit": "%"}, {"measurement": "5-LOX %inh", "setting": "5-LOX enzyme; conc 10 (μM)", "value": 55.7, "unit": "%"}, {"measurement": "5-LOX %inh", "setting": "5-LOX enzyme; conc 100 (μM)", "value": 85, "unit": "%"}, {"measurement": "IC50", "setting": "5-LOX enzyme; lab report", "value": "4.08 ± 0.22", "unit": "µM"}]}, {"smiles": "Cc1ccc(N2C(=O)CSC2=NN=Cc2cn(S(C)(=O)=O)c3ccccc23)cc1", "note": "[Compound 5d]", "values": [{"measurement": "IC50", "setting": "ovine COX-1; IC50 COX1, lab report / text printing uM", "value": "5.79 ± 0.16", "unit": "µM"}, {"measurement": "IC50", "setting": "ovine COX-1; IC50 COX-1", "value": "5.79 ± 0.16", "unit": "µM"}, {"measurement": "COX1 %inh", "setting": "ovine COX-1; conc 0.1 (μM)", "value": 8.83, "unit": "%"}, {"measurement": "COX1 %inh", "setting": "ovine COX-1; conc 1 (μM)", "value": 27.6, "unit": "%"}, {"measurement": "COX1 %inh", "setting": "ovine COX-1; conc 10 (μM)", "value": 53.7, "unit": "%"}, {"measurement": "COX1 %inh", "setting": "ovine COX-1; conc 100 (μM)", "value": 83.6, "unit": "%"}, {"measurement": "stomach histopathology finding", "setting": "stomach", "value": "minimally disrupted mucous layer"}, {"measurement": "S.I (IC50 COX-1/IC50 COX-2)", "setting": "COX-2", "value": "8.59 and 8.60"}, {"measurement": "SI", "setting": "COX-2", "value": 8.596}, {"measurement": "melting point", "value": "271 to 273", "unit": "°C"}, {"measurement": "antibacterial activity against E. coli", "setting": "[1]", "value": "exclusively exhibited bioactivity against E. coli"}, {"measurement": "zone of inhibition at 100 µg/disc", "setting": "[1]; Escherichia coli, ATCC25922, read-out: diameters of inhibition zones", "value": "8 to 15", "unit": "mm"}, {"measurement": "IC50", "setting": "5-LOX enzyme", "value": "1.1 ± 0.06", "unit": "µM"}, {"measurement": "5-LOX %inh", "setting": "5-LOX enzyme; conc 0.1 (μM)", "value": 30.3, "unit": "%"}, {"measurement": "5-LOX %inh", "setting": "5-LOX enzyme; conc 1 (μM)", "value": 47.6, "unit": "%"}, {"measurement": "5-LOX %inh", "setting": "5-LOX enzyme; conc 10 (μM)", "value": 70.6, "unit": "%"}, {"measurement": "5-LOX %inh", "setting": "5-LOX enzyme; conc 100 (μM)", "value": 86.9, "unit": "%"}, {"measurement": "IC50", "setting": "5-LOX enzyme; lab report", "value": "1.1 ± 0.06", "unit": "µM"}]}]}
